Experimental data as given in patent US7879880B2, “Substituted aniline derivatives useful as histamine H3 antagonists” (Schering Corporation, priority 2005, dated 2011).

Legend:
[1] = target: T1, guinea pig brain H3 receptor (Cavia porcellus, UniProt Q9JI35); assay: H3-receptor binding assay, guinea pig brain membranes; conditions: [3H]R-α-methyl histamine or [3H]Nα-methyl histamine
T1 construct: The brain tissue was homogenized with a solution of 50 mM Tris, pH 7.5; from tissue; host or cells: guinea pig brain membranes
T1 sequence (Q9JI35 whole entry): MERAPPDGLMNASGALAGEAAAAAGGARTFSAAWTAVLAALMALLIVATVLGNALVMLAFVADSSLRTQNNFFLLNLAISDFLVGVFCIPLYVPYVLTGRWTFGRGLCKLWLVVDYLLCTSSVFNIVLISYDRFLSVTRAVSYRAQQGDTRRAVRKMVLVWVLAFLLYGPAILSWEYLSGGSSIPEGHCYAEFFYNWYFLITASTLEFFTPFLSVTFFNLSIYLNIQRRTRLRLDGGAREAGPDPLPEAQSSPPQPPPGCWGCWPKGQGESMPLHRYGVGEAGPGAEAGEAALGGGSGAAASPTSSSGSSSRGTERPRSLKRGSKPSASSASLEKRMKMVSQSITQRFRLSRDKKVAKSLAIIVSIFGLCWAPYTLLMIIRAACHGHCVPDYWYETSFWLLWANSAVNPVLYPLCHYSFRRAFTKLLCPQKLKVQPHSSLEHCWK
Experimental: (§1) The source of the H3 receptors in this experiment was guinea pig brain. Alternatively, the source of H3 receptors was recombinant human receptor, expressed in HEK-293 (human embryonic kidney) cells.
The animals weighed 400-600 g. The brain tissue was homogenized with a solution of 50 mM Tris, pH 7.5. The final concentration of tissue in the homogenization buffer was 10% w/v. The homogenates were centrifuged at 1,000×g for 10 min. in order to remove clumps of tissue and debris. The resulting supernatants were then centrifuged at 50,000×g for 20 min. in order to sediment the membranes, which were next washed three times in homogenization buffer (50,000×g for 20 min. each). The membranes were frozen and stored at −70° C. until needed.
All compounds to be tested were dissolved in DMSO and then diluted into the binding buffer (50 mM Tris, pH 7.5) such that the final concentration was 2 μg/ml with 0.1% DMSO. Membranes were then added (400 μg of protein, 5 μg in the case of recombinant human receptor) to the reaction tubes. The reaction was started by the addition of 3 nM [^3H]R-α-methyl histamine (8.8 Ci/mmol) or 3 nM [^3H]N^α-methyl histamine (80 Ci/mmol) and continued under incubation at 30° C. for 30 min. Bound ligand was separated from unbound ligand by filtration, and the amount of radioactive ligand bound to the membranes was quantitated by liquid scintillation spectrometry. […]

[2] = Effects on diet-induced obesity in mice (weight gain and food intake); assay type: in vivo; conditions: mice on high-fat diet, 10 mg/kg by gavage once daily for four days, vs vehicle control
Experimental: Lean mice (male, approx. 5 weeks of age, purchased from The Jackson Laboratory, Bar Harbor, Me.) were maintained in individual cages at 22° C. on a 12:12 hr light/dark cycle. The “treated” mice (N=12) were administered a Thiazole Derivative (10 mg/kg) by gavage once daily for four consecutive days. Control mice (N=12) were administered vehicle only, once daily for four days. Both control and treated mice were fed a high-fat diet from days 0 to 4 and body weight and food intake were monitored daily. The percent inhibition for weight gain and food intake was calculated by comparing the increase in weight gain and food intake in the treated mice to the increase in weight gain and food intake in the control mice.
Compound numbers correspond to the compound numbering set forth in the specification.

[3] = target: T2, recombinant human H3 receptor (Homo sapiens, UniProt Q9Y5N1); assay: H3-receptor binding assay, recombinant human receptor expressed in HEK-293 cells; conditions: [3H]R-α-methyl histamine or [3H]Nα-methyl histamine
T2 construct: expressed in transfected cells; host or cells: HEK-293 (human embryonic kidney) cells
T2 sequence (Q9Y5N1 whole entry): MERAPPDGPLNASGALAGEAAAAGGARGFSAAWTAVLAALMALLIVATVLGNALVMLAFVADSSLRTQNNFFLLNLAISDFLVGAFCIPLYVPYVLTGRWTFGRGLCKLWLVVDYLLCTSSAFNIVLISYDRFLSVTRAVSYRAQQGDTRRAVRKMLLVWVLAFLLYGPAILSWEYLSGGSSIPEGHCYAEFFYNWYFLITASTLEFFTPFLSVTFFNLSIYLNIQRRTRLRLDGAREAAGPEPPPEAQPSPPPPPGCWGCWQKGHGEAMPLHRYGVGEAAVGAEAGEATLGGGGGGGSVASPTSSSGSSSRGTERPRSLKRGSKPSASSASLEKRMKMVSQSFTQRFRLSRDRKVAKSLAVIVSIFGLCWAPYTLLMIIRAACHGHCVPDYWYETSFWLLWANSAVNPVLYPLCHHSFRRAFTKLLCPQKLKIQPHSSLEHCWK
Experimental: as §1
All compounds to be tested were dissolved in DMSO and then diluted into the binding buffer (50 mM Tris, pH 7.5) such that the final concentration was 2 μg/ml with 0.1% DMSO. Membranes were then added (400 μg of protein, 5 μg in the case of recombinant human receptor) to the reaction tubes. The reaction was started by the addition of 3 nM [^3H]R-α-methyl histamine (8.8 Ci/mmol) or 3 nM [^3H]N^α-methyl histamine (80 Ci/mmol) and continued under incubation at 30° C. for 30 min. Bound ligand was separated from unbound ligand by filtration, and the amount of radioactive ligand bound to the membranes was quantitated by liquid scintillation spectrometry. All incubations were performed in duplicate and the standard error was always less than 10%. Compounds that inhibited more than 70% of the specific binding of radioactive ligand to the receptor were serially diluted to determine a Ki (nM).

Ki [1] [nM]	Ki [3] [nM]	SMILES	Food intake Inhibition (%) [2] [%]	Weight Gain Inhibition (%) [2] [%]
2	–	Cc1cccc(C)c1NC(=O)N1CCN(C(=O)c2ccc(Nc3ccncc3)cc2)CC1 [Compound 54A]	–	–
–	–	Nc1cc(Nc2ccc(C(=O)N3CCC(n4c(-c5ccccn5)nc5cccnc54)CC3)cc2)ccn1 [Compound 160A]	18.3	33.0
–	3	O=C(c1ccc(Nc2ccncc2)cc1)N1CCC(n2c(-c3ccccn3)nc3cccnc32)CC1 [Compound 59A]	1.1	21.0
